What was measured:
D(3) dopamine receptor = D(3) dopamine receptor (Homo sapiens, UniProt P35462)
[1] = target: T1, 5-hydroxytryptamine receptor 1A (Homo sapiens, UniProt P08908)
T1 sequence (P08908 whole entry): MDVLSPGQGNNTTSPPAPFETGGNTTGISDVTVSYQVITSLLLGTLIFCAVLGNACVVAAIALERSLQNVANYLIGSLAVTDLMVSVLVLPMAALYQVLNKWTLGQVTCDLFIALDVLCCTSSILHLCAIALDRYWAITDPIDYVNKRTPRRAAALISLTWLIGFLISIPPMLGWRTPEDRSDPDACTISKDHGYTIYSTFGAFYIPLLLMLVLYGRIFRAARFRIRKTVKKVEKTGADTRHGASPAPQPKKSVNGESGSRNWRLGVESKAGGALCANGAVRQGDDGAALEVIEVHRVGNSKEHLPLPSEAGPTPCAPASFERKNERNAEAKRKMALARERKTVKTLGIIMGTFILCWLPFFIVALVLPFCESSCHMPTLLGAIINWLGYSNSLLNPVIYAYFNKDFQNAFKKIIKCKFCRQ

[2] = target: T2, Amine oxidase [flavin-containing] A (Homo sapiens, UniProt P21397); format: functional
T2 sequence (P21397 whole entry): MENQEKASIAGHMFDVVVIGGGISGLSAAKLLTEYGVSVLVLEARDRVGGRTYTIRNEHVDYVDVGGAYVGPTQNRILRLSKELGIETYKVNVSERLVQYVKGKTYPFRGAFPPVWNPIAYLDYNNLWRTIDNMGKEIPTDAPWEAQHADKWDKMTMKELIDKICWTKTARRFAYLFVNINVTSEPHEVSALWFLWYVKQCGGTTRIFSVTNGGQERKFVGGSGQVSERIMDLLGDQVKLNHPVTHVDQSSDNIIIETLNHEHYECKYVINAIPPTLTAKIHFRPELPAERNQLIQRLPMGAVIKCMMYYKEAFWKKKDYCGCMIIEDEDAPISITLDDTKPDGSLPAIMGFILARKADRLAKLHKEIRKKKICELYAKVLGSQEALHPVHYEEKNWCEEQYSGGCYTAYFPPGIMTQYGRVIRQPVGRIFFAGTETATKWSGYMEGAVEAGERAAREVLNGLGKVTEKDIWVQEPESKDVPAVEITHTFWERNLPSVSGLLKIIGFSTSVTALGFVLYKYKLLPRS

Mu-type opioid receptor = Mu-type opioid receptor (Homo sapiens, UniProt P35372)
[3] = target: Sodium-dependent noradrenaline transporter (Homo sapiens, UniProt P23975)
Thromboxane A2 receptor [4] = target: T3, Thromboxane A2 receptor (Homo sapiens, UniProt P21731); format: functional, cell-based
T3 sequence (P21731 whole entry): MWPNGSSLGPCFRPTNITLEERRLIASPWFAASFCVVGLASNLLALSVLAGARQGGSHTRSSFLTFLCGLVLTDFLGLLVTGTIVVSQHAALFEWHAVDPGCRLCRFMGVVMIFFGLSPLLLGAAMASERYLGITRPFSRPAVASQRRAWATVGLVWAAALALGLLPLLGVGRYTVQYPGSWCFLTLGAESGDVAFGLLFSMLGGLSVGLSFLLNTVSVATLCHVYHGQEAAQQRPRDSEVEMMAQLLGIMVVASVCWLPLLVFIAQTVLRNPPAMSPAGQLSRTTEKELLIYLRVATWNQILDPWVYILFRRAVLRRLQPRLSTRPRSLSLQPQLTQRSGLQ

Histamine H3 receptor = Histamine H3 receptor (Homo sapiens, UniProt Q9Y5N1)
[5] = target: Prostaglandin G/H synthase 1 (Homo sapiens, UniProt P23219); format: functional
[6] = target: T4, Alpha-2A adrenergic receptor (Homo sapiens, UniProt P08913)
T4 sequence (P08913 whole entry): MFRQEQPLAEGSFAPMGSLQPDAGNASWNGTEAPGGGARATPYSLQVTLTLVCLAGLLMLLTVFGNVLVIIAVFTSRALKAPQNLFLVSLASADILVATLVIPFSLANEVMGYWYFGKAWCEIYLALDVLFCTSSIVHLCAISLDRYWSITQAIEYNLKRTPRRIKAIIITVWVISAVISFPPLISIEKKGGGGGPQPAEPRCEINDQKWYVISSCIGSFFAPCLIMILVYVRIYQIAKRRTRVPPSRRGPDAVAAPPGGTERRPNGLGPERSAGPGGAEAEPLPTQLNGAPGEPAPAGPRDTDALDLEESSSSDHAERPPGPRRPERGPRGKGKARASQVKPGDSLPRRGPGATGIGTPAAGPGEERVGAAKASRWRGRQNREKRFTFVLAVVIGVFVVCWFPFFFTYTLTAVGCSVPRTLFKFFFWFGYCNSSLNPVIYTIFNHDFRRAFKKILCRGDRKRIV

Prothrombin = Prothrombin (Homo sapiens, UniProt P00734); format: functional
Thromboxane A2 receptor [7] = target: T3, Thromboxane A2 receptor; format: functional, cell-based; remark: listed apart in the source
[8] = target: T5, Muscarinic acetylcholine receptor M2 (Homo sapiens, UniProt P08172)
T5 sequence (P08172 whole entry): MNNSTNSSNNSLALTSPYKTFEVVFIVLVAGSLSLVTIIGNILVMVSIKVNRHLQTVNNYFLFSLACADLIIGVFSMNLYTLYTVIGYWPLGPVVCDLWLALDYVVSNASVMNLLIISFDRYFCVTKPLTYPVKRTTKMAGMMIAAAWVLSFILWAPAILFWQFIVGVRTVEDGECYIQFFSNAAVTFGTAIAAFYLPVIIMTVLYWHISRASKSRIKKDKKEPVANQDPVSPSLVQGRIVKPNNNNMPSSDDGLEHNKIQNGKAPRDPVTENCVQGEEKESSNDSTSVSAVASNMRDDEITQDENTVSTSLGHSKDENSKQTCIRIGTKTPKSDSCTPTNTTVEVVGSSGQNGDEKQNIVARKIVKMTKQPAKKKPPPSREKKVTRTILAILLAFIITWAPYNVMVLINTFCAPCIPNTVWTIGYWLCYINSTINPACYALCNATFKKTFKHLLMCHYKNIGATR

D(1A) dopamine receptor = D(1A) dopamine receptor (Homo sapiens, UniProt P21728)
Acetylcholinesterase = Acetylcholinesterase (Homo sapiens, UniProt P22303); format: functional
Further: assay procedure not described here.

Sequence of D(3) dopamine receptor (P35462 whole entry): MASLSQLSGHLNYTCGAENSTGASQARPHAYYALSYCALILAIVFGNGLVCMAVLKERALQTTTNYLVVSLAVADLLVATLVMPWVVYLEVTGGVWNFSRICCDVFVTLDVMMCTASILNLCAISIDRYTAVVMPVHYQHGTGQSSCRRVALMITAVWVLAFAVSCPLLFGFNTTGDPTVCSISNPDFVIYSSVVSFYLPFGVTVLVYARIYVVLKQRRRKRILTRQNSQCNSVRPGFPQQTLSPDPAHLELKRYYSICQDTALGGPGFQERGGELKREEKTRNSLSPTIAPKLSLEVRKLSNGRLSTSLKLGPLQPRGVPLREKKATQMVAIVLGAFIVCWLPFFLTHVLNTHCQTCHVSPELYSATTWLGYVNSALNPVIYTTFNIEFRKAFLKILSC
Sequence of Acetylcholinesterase (P22303 whole entry): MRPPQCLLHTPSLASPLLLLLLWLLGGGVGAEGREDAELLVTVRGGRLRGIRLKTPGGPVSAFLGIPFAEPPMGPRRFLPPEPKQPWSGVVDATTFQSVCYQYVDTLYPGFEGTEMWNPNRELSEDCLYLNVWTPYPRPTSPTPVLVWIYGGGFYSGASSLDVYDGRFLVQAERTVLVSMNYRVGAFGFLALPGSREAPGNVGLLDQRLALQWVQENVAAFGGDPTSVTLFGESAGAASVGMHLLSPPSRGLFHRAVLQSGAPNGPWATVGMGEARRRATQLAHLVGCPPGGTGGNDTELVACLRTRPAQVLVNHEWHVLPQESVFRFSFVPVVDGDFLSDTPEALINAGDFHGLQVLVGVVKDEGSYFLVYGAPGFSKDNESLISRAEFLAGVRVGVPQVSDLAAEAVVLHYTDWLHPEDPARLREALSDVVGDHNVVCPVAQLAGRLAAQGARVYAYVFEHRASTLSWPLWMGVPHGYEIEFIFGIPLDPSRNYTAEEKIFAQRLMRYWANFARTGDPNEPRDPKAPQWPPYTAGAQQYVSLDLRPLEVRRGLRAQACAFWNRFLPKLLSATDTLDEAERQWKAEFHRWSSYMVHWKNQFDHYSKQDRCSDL
Sequence of D(1A) dopamine receptor (P21728 whole entry): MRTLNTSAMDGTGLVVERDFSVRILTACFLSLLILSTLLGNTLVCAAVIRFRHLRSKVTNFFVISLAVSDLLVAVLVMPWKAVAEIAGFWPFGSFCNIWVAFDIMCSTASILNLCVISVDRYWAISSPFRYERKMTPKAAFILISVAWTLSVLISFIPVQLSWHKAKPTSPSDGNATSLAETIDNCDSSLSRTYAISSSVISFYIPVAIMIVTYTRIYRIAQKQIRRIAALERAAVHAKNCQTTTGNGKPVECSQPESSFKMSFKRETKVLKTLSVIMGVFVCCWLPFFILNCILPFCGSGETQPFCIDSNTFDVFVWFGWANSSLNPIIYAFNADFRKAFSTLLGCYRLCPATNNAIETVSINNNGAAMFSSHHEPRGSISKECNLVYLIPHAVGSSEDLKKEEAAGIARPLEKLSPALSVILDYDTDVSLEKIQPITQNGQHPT
Sequence of Sodium-dependent noradrenaline transporter (P23975 whole entry): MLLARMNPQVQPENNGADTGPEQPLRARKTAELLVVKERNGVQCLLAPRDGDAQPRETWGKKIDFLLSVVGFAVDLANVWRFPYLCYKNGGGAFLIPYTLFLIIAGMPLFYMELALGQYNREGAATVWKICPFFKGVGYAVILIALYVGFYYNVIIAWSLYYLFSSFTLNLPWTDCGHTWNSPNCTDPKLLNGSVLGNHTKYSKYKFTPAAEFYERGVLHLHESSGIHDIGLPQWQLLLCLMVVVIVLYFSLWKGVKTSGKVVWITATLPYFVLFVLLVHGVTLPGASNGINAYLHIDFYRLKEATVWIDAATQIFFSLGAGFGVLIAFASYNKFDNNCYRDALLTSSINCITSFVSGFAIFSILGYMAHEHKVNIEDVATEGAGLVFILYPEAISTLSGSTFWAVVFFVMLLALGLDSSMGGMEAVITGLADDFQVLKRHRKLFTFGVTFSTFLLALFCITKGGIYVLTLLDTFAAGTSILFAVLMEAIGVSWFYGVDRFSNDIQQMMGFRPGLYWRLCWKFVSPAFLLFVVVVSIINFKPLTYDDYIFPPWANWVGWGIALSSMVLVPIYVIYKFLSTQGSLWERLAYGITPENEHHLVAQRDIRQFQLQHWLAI
Sequence of Histamine H3 receptor (Q9Y5N1 whole entry): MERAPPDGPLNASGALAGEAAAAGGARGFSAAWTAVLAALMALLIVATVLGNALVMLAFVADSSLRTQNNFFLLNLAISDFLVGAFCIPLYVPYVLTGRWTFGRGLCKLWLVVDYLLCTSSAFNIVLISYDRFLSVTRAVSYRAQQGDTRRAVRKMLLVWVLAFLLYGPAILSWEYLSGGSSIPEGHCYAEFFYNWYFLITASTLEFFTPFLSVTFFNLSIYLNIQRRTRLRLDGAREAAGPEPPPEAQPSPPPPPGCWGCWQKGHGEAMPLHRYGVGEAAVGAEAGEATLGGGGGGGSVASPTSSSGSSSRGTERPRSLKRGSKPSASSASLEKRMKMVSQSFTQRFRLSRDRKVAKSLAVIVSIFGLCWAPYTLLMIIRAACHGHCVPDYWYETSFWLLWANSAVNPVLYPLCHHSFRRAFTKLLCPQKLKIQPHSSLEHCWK
Sequence of Mu-type opioid receptor (P35372 whole entry): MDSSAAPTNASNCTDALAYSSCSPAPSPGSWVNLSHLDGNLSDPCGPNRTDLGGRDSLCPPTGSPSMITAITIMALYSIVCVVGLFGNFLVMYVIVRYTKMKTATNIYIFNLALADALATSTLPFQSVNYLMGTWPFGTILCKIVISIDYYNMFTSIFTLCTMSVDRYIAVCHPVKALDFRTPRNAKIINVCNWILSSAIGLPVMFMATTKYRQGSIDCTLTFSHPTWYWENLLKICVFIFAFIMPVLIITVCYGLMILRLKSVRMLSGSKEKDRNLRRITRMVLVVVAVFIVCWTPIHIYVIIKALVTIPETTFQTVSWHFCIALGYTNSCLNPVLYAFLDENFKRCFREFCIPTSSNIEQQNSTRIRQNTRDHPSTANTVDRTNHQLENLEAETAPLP
Sequence of Prostaglandin G/H synthase 1 (P23219 whole entry): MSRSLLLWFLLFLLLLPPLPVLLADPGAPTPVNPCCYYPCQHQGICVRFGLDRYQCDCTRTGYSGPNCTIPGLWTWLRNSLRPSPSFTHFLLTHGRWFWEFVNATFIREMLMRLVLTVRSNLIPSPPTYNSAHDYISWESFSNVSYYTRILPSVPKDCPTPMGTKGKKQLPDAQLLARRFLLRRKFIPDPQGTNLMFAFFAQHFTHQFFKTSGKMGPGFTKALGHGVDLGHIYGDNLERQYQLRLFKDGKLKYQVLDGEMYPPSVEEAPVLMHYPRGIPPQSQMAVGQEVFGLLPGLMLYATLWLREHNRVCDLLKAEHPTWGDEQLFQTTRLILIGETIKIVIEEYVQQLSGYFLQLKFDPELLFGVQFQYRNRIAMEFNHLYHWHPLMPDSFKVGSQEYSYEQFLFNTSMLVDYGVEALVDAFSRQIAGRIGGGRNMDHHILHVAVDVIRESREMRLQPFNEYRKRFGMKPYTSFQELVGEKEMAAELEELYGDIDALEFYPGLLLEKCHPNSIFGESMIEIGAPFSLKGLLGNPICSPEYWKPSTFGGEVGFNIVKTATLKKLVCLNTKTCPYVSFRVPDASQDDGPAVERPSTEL

| SMILES | AC50 (D(3) dopamine receptor) | AC50 [1] | AC50 [2] | AC50 (Mu-type opioid receptor) | AC50 [3] | AC50 (Thromboxane A2 receptor [4]) | AC50 (Histamine H3 receptor) | AC50 [5] | AC50 [6] | AC50 (Prothrombin) | AC50 (Thromboxane A2 receptor [7]) | AC50 [8] | AC50 (D(1A) dopamine receptor) | AC50 (Acetylcholinesterase) |
| --- | --- | --- | --- | --- | --- | --- | --- | --- | --- | --- | --- | --- | --- | --- |
| Nc1ccncc1 [DALFAMPRIDINE] | > 30 µM | > 30 µM | > 30 µM | > 30 µM | > 30 µM | > 30 µM | > 30 µM | > 30 µM | > 30 µM | > 30 µM | > 30 µM | > 30 µM | > 30 µM | > 30 µM |
| C[C@H](N)C(=O)O [ALANINE] | > 30 µM | > 30 µM | > 30 µM | > 30 µM | > 30 µM | > 30 µM | > 30 µM | > 30 µM | > 30 µM | > 30 µM | > 30 µM | > 30 µM | > 30 µM | > 30 µM |
| C[C@]1(COc2ccc(N3CCC(Oc4ccc(OC(F)(F)F)cc4)CC3)cc2)Cn2cc([N+](=O)[O-])nc2O1 | > 30 µM | > 30 µM | > 30 µM | > 30 µM | 12.9 µM | > 30 µM | > 30 µM | > 30 µM | > 30 µM | > 30 µM | > 30 µM | > 30 µM | > 30 µM | > 30 µM |
| CCCCOc1ccc(CC(=O)NO)cc1 [BUFEXAMAC] | > 30 µM | > 30 µM | > 30 µM | > 30 µM | > 30 µM | > 30 µM | > 30 µM | > 30 µM | > 30 µM | > 30 µM | > 30 µM | > 30 µM | > 30 µM | > 30 µM |
| C[C@H]1O[C@@H](O[C@H]2[C@@H](O)C[C@H](O[C@H]3[C@@H](O)C[C@H](O[C@H]4CC[C@@]5(C)[C@H](CC[C@@H]6[C@@H]5CC[C@]5(C)[C@@H](C7=CC(=O)OC7)CC[C@]65O)C4)O[C@@H]3C)O[C@@H]2C)C[C@H](O)[C@@H]1O [DIGITOXIN] | > 30 µM | > 30 µM | > 30 µM | > 30 µM | > 30 µM | > 30 µM | > 30 µM | > 30 µM | > 30 µM | > 30 µM | > 30 µM | > 30 µM | > 30 µM | > 30 µM |
| CCC(=O)O[C@]1(C(=O)COC(C)=O)CC[C@H]2[C@@H]3CCC4=CC(=O)CC[C@]4(C)[C@H]3[C@@H](O)C[C@@]21C [HYDROCORTISONE ACEPONATE] | > 30 µM | > 30 µM | > 30 µM | > 30 µM | > 30 µM | > 30 µM | > 30 µM | > 30 µM | > 30 µM | > 30 µM | > 30 µM | > 30 µM | > 30 µM | > 30 µM |

Reference: ChEMBL document CHEMBL5291721, “A preclinical secondary pharmacology resource illuminates target-adverse drug reaction associations of marketed drugs” (Nat Commun, 2023)
